One assay concerns MOLM14 D835Y cells. As to the kind of experiment: MOLM14 D835Y cell viability (Cell Titer Glo). The format is cell-based. Particulars: Homo sapiens. The method, then: Both cell lines have activated FLT3 receptors, each of which carry additional resistance mutations in the kinase domain (D835Y and F691L, respectively).
(§1) MOLM14 D835Y and MOLM14 F691L cells were grown in RPMI-1640 media supplemented with 20% fetal bovine serum (FBS). For viability/cytotoxicity assessments, cells were seeded into 1536-well white polystyrene tissue culture-treated Greiner plates using a Multidrop Combi dispenser (ThermoFisher), in final volume 5 μL of growth media per well, at a density of 1000 cells per well. After cell addition, 23 nL of test compound were transferred into individual wells (22 doses tested for each test compound, with a 1:2 dilution series starting at 10 μM) via a 1536 pin-tool. Bortezomib (final concentration 2.3 μM) was used as a positive control for cell cytotoxicity. Plates were incubated for 48 hours at standard incubator conditions covered by a stainless steel gasketed lid to prevent evaporation. 48 hours post compound addition, 3 μL of Cell Titer Glo (Promega) were added to each well and plates were incubated at room temperature for 15 minutes with the stainless-steel lid in place. Luminescence readings were taken using a Viewlux imager (PerkinElmer) with a 2 second exposure time per plate.
This cell line has activated FLT3 receptors, which carries an additional resistance mutation in the kinase domain at D835Y.
as §1, with “D835Y” for “D835Y and MOLM14 F691L”, “mL” for “μL”, “mM)” for “μM)”
A general note: ATP-based viability assays read luminescence as a measure of living cells.

A further assay concerns the target IRAK1 (Homo sapiens, UniProt P51617). As to the kind of experiment: RBC HotSpot kinase inhibition assay, IRAK1. The note with it: isolated kinase, 33P-ATP, 2 h. The format is biochemical.
Description: (§2) This assay uses the isolated kinase enzyme. This assay is very useful for determining competition of the inhibitor for ATP and/or substrates and for measuring the kinetics of enzyme inhibition. […] Unlike kinase binding assays that measure competition for ATP, the HotSpot Kinase Assay is a functional assay that measures catalytic activity; as such it measures relative functional potency regardless of the mechanism of enzyme inhibition. This assay uses the form of the various enzymes that are easiest to express, which may not necessarily be the form of the enzyme that exist in the cell. (Sometimes the carboxy terminus has been truncated to aid in expression, or, if it is a receptor kinase, the enzyme itself is isolated from the other parts of the receptor that are involved in regulating kinase activity.)
(§3) The reagent used was as follows: Base Reaction buffer; 20 mM Hepes (pH 7.5), 10 mM MgCl2, 1 mM EGTA, 0.01% Brij35, 0.02 mg/ml BSA, 0.1 mM Na3VO4, 2 mM DTT, 1% DMSO. Required cofactors were added individually to each kinase reaction.
(§4) The reaction procedure was as follows: • 1) Substrates were prepared in freshly prepared Reaction Buffer. • 2) Any required cofactors were delivered to the substrate solution above. • 3) Kinase was delivered into the substrate solution and gently mixed. • 4) Compounds were delivered in 100% DMSO into the kinase reaction mixture by Acoustic technology (Echo550; nanoliter range), followed by incubation for 20 min at room temp. • 5) ^33P-ATP was delivered into the reaction mixture to initiate the reaction. • 6) The mixture was incubated for 2 hours at room temperature. • 7) Kinase activity was detected by P81 filter-binding method.
as §2, with “Although not wishing to be limited by theory, it is believed that sometimes” for “(Sometimes”, “activity.” for “activity.)”
(§5) The reagent used was as follows: Base Reaction buffer; 20 mM Hepes (pH 7.5), 10 mM MgCl2, 1 mM EGTA, 0.01% Brij35, 0.02 mg/ml BSA, 0.1 mM Na3 VO4, 2 mM DTT, 1% DMSO.
(§6) Required cofactors were added individually to each kinase reaction.
as §4, with “33P-ATP” for “^33P-ATP”

For another assay, the target named is T1, IRAK4 (Homo sapiens, UniProt Q9NWZ3).
T1 sequence (Q9NWZ3 1-460): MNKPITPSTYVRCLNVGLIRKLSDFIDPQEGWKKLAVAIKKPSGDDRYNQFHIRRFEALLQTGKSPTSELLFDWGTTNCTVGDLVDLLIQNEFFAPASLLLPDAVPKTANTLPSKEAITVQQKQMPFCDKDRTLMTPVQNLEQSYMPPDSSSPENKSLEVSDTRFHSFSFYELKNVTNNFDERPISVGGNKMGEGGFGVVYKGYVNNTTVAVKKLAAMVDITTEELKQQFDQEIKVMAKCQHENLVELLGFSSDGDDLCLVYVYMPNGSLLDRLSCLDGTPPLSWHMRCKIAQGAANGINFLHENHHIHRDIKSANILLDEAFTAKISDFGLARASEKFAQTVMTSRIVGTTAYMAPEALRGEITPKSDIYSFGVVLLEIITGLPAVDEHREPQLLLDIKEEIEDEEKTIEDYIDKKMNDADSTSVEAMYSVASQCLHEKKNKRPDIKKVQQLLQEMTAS
Briefly: RBC HotSpot kinase inhibition assay, IRAK4. The format is biochemical. Particulars: isolated kinase, 33P-ATP, 2 h.
Description: as §2, §3, §4
as §2, with “Although not wishing to be limited by theory, it is believed that sometimes” for “(Sometimes”, “activity.” for “activity.)”
as §5, §6
as §4, with “33P-ATP” for “^33P-ATP”

Sequence of IRAK1 (P51617 whole entry, the tested form may be a part): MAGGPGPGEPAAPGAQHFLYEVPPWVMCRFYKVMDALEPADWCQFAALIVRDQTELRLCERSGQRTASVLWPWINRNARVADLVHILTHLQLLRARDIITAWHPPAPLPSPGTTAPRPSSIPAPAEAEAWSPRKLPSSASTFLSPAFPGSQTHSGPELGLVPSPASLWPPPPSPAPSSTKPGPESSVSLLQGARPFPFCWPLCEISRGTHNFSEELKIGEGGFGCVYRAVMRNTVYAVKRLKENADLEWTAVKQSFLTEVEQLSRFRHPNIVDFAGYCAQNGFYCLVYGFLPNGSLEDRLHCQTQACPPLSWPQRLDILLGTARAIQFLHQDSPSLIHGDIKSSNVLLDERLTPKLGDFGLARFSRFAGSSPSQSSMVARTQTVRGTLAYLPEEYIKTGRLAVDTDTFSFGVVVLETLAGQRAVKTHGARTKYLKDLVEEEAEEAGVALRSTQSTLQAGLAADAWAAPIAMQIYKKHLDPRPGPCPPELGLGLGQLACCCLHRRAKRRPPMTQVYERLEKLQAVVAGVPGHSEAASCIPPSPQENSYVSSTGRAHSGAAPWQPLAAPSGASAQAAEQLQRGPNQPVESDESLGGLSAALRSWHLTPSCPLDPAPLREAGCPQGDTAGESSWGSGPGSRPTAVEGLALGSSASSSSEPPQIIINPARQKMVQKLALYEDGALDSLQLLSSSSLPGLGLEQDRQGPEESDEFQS

By IC50 is commonly meant the concentration that inhibits the measured activity by half. `COc1cn2ncc(-c3nc(N[C@H]4CNCC[C@@H]4F)ccc3F)c2nc1C1CC1` [Compound 3, 6-(5-cyclopropyl-6-methoxypyrazolo[1,5-a]pyrimidin-3-yl)-5-fluoro-N-((3S,4S)-4-fluoropiperidin-3-yl)pyridin-2-amine]: the IC50 in the assay with MOLM14 D835Y cells (MOLM-14, Table 16, 48 h) is 2 nM; at IRAK1 (Table 11), 0.8 nM; against IRAK4 (Table 11), below 0.5 nM.
The corresponding values for `COc1cn2ncc(-c3nc(N[C@@H]4CCCNC4)ccc3F)c2nc1C1CC1` [Compound 2, (R)-6-(5-cyclopropyl-6-methoxypyrazolo[1,5-a]pyrimidin-3-yl)-5-fluoro-N-(piperidin-3-yl)pyridin-2-amine] are 2 nM, 4 nM and below 0.5 nM.
With `COc1cn2ncc(-c3nc(N[C@H]4CNC[C@@H]4F)ncc3F)c2nc1C(C)(C)O` [Compound 5a, 2-(3-(5-fluoro-2-(((3S,4S)-4-fluoropyrrolidin-3-yl)amino)pyrimidin-4-yl)-6-methoxypyrazolo[1,5-a]pyrimidin-5-yl)propan-2-ol], the IC50 stood at 25 nM in the assay with MOLM14 D835Y cells (MOLM-14, Table 22, 48 h); 6 nM on IRAK1 (Table 17); 0.7 nM on IRAK4 (Table 17).
Turning to `COc1cn2ncc(-c3cccc(N[C@H]4CNCC[C@@H]4F)n3)c2nc1C1CC1` [Compound 21, 6-(5-cyclopropyl-6-methoxypyrazolo[1,5-a]pyrimidin-3-yl)-N-((3S,4S)-4-fluoropiperidin-3-yl)pyridin-2-amine], the 50% inhibitory concentration (IC50) in the assay with MOLM14 D835Y cells (MOLM-14, Table 16, 48 h) was 46 nM; on IRAK1 (Table 11), 38 nM; against IRAK4 (Table 11) it was 2 nM.
Take `COc1cn2ncc(-c3nc(N[C@H]4CNC[C@@H]4F)c(F)cc3F)c2nc1C(C)(C)O` [Compound 12, 2-(3-(3,5-difluoro-6-(((3S,4S)-4-fluoropyrrolidin-3-yl)amino)pyridin-2-yl)-6-methoxypyrazolo[1,5-a]pyrimidin-5-yl)propan-2-ol]: the IC50 was 32 nM in the assay with MOLM14 D835Y cells (MOLM-14, Table 16, 48 h); 9 nM against IRAK1 (Table 11); below 0.5 nM against IRAK4 (Table 11).
Regarding `COc1cn2ncc(-c3cncc(N[C@@H]4CCCNC4)n3)c2nc1C1CC1` [Compound 11a, (R)-6-(5-cyclopropyl-6-methoxypyrazolo[1,5-a]pyrimidin-3-yl)-N-(piperidin-3-yl)pyrazin-2-amine], the IC50 is 29 nM in the assay with MOLM14 D835Y cells (MOLM-14, Table 22, 48 h); 15 nM against IRAK1 (Table 17); 1 nM on IRAK4 (Table 17).
For `COc1cn2ncc(-c3nc(N[C@@H]4CCCNC4)ncc3F)c2nc1C(C)(C)O` [Compound 4a, (R)-2-(3-(5-fluoro-2-(piperidin-3-ylamino)pyrimidin-4-yl)-6-methoxypyrazolo[1,5-a]pyrimidin-5-yl)propan-2-ol] the same measures were 11 nM, 4 nM and 2 nM.
For `COc1cn2ncc(-c3cccc(N[C@@H]4CCCNC4)n3)c2nc1C1CC1` [Compound 20, (R)-6-(5-cyclopropyl-6-methoxypyrazolo[1,5-a]pyrimidin-3-yl)-N-(piperidin-3-yl)pyridin-2-amine], the IC50 was determined as 41 nM in the assay on MOLM14 D835Y cells (MOLM-14, Table 16, 48 h); 146 nM against IRAK1 (Table 11); 5 nM against IRAK4 (Table 11).
For `COc1cn2ncc(-c3cccc(N[C@H]4CNC[C@@H]4F)n3)c2nc1C1CC1` [Compound 19, 6-(5-cyclopropyl-6-methoxypyrazolo[1,5-a]pyrimidin-3-yl)-N-((3S,4S)-4-fluoropyrrolidin-3-yl)pyridin-2-amine], the IC50 in the assay on MOLM14 D835Y cells (MOLM-14, Table 16, 48 h) stood at 58 nM; at IRAK1 (Table 11), 45 nM; at IRAK4 (Table 11), 2 nM.
Take `COc1cn2ncc(-c3nc(N[C@@H]4CCCNC4)ncc3F)c2nc1C1CC1` [Compound 14a, (R)-4-(5-cyclopropyl-6-methoxypyrazolo[1,5-a]pyrimidin-3-yl)-5-fluoro-N-(piperidin-3-yl)pyrimidin-2-amine]: the IC50 in the assay with MOLM14 D835Y cells (MOLM-14, Table 22, 48 h) turned out to be 1 nM; against IRAK1 (Table 17), 0.9 nM; at IRAK4 (Table 17), 0.6 nM.
As to `COc1cn2ncc(-c3nc(N[C@H]4CNC[C@@H]4F)c(F)cc3F)c2nc1C1CC1` [Compound 24, 6-(5-cyclopropyl-6-methoxypyrazolo[1,5-a]pyrimidin-3-yl)-3,5-difluoro-N-((3S,4S)-4-fluoropyrrolidin-3-yl)pyridin-2-amine], the IC50 in the assay with MOLM14 D835Y cells (MOLM-14, Table 16, 48 h) is 2 nM; on IRAK1 (Table 11) it was 2 nM; at IRAK4 (Table 11) it was below 0.5 nM.
Consider `COc1cn2ncc(-c3nc(N[C@H]4CNCC[C@@H]4F)c(C#N)cc3F)c2nc1C(C)(C)O` [Compound 10, 5-fluoro-2-(((3S,4S)-4-fluoropiperidin-3-yl)amino)-6-(5-(2-hydroxypropan-2-yl)-6-methoxypyrazolo[1,5-a]pyrimidin-3-yl)nicotinonitrile], for which the half-inhibitory concentration (IC50) is 2 nM against IRAK1 (Table 11) and below 0.5 nM on IRAK4 (Table 11).
For `COc1cn2ncc(-c3nc(N[C@@H]4CCCNC4)c(C#N)cc3F)c2nc1C(C)(C)O` [Compound 9, (R)-5-fluoro-6-(5-(2-hydroxypropan-2-yl)-6-methoxypyrazolo[1,5-a]pyrimidin-3-yl)-2-(piperidin-3-ylamino)nicotinonitrile], the IC50 with MOLM14 D835Y cells (MOLM-14, Table 16, 48 h) was 16 nM; against IRAK1 (Table 11), 3 nM; against IRAK4 (Table 11), below 0.5 nM.
`COc1cn2ncc(-c3ccnc(N[C@H]4CNC[C@@H]4F)n3)c2nc1C1CC1` [Compound 8a, 4-(5-cyclopropyl-6-methoxypyrazolo[1,5-a]pyrimidin-3-yl)-N-((3S,4S)-4-fluoropyrrolidin-3-yl)pyrimidin-2-amine]: the concentration for half-maximal inhibition (IC50) amounted to 26 nM in the assay with MOLM14 D835Y cells (MOLM-14, Table 22, 48 h); 9 nM at IRAK1 (Table 17); 1 nM on IRAK4 (Table 17).
Regarding `COc1cn2ncc(-c3nc(N[C@H]4CNCC[C@@H]4F)c(C#N)cc3F)c2nc1C1CC1` [Compound 7, 6-(5-cyclopropyl-6-methoxypyrazolo[1,5-a]pyrimidin-3-yl)-5-fluoro-2-(((3S,4S)-4-fluoropiperidin-3-yl)amino)nicotinonitrile], the IC50 at IRAK1 (Table 11) and against IRAK4 (Table 11) was below 0.5 nM in each case.

The values above are taken from patent US20260374773A1, “MULTI-CYCLIC IRAK AND FLT3 INHIBITING COMPOUNDS AND USES THEREOF” (CHILDREN'S HOSPITAL MEDICAL CENTER, priority 2022, published 2026).
